# Assay results: the SangsterLogP compilation
# How the values were obtained:
# [1] = method code SF-RC, from DOI: 10.1016/j.nucmedbio.2009.09.005, PMID: 20447558; conditions: pH 7.4
# [2] = method code SF-AS, from DOI: 10.1002/jps.2600620542, PMID: 4705706
# [3] = method code SF-RC, from DOI: 10.1021/jm901850k, PMID: 20411954; conditions: pH 7.4
# [4] = method code SF-RC, from DOI: 10.1002/ps.2780240105; conditions: pH 7.0
# [5] = method code SF, from DOI: 10.1016/0048-3575(89)90162-4
# [6] = method code SF-AS, from DOI: 10.1021/jm991080o, PMID: 10579844; conditions: pH 7.4
# [7] = method code RP-HPLC, from DOI: 10.1016/0143-7208(91)85018-4; conditions: pH 7.0
# [8] = not given; remark: listed apart in the source
# [9] = method code SF-HPLC, from DOI: 10.1016/0928-0987(95)00046-1; conditions: pH 4.0
# [10] = not given; remark: listed apart in the source
# [11] = method code SF, from DOI: 10.3109/00498258909043190, PMID: 2618089; conditions: pH 10.8
# [12] = pH 7.4
# [13] = not given; remark: listed apart in the source
# [14] = method code SF-RC, from DOI: 10.1021/es00096a007
# [15] = not given; remark: listed apart in the source
# [16] = method code SF-AS, from DOI: 10.1016/0048-3575(87)90152-0
# [17] = method code SF-AS, from PMID: 19779; conditions: pH 2.0
# [18] = method code SF-EIA, from DOI: 10.1016/j.carres.2004.12.038, PMID: 15797137
# [19] = method code SF, from DOI: 10.1016/0048-3575(74)90109-6
# [20] = not given; remark: listed apart in the source
# [21] = method code SF-RC, from DOI: 10.1002/jlcr.1863; conditions: pH 7.4
# [22] = method code SF-HPLC, from DOI: 10.1021/jm030477w, PMID: 15084119; conditions: pH 7.4
# [23] = not given; remark: listed apart in the source
# [24] = method code SF-AS, from PMID: 11446164; conditions: pH 5.9
# [25] = not given; remark: listed apart in the source
# [26] = method code SF-RC, from DOI: 10.1016/s0969-8051(98)00005-5, PMID: 9720665; conditions: pH 7.0
# [27] = method code SF-AS, from DOI: 10.1002/jps.2600741028, PMID: 4078715
# [28] = method code SF-RC, from DOI: 10.1021/jm0607193, PMID: 17004725
# [29] = not given; remark: listed apart in the source
# [30] = not given; remark: listed apart in the source
# [31] = method code SF, from DOI: 10.1021/jm950585l, PMID: 8632436
# [32] = method code SF-AS, from DOI: 10.1016/0378-5173(88)90083-x; conditions: pH 7.3
# [33] = not given; remark: listed apart in the source
# [34] = method code SF-RC, from PMID: 1811623
# [35] = from Afshan, A.; Jehangir, M.; Amin, W.; Mujahid, A. (2000). Study of various esters of ethylcysteine acid dimer as brain perfusion imaging agents and formulation into single vial kit for labelling with …; conditions: pH 7.5
# [36] = method code SF-GLC, from DOI: 10.1002/ps.2780120408; conditions: pH 7.0
# [37] = method code SF-AS, from DOI: 10.1002/ardp.19843170314
# [38] = method code SF-AS, from PMID: 7849133; conditions: pH 3.6
# [39] = method code SF, from DOI: 10.1007/bf01610114, PMID: 6839039
# [40] = method code SF, from DOI: 10.1021/jm00114a024, PMID: 1920362
# [41] = method code SF-HPLC, from DOI: 10.1111/j.1747-0285.2011.01193.x, PMID: 21777394; conditions: pH 7.4
# [42] = method code SF-AS, from DOI: 10.1021/jm00160a012, PMID: 3761307; conditions: pH 7.4
# [43] = method code SF, from DOI: 10.1021/jm00019a019, PMID: 7562920; conditions: pH 10.0
# [44] = method code SF, from DOI: 10.1021/jm0498699.s001, PMID: 15163209
# [45] = method code SF-AS, from DOI: 10.1016/0223-5234(94)90063-9; conditions: pH 2.0
# [46] = method code SF-AS, from DOI: 10.1021/jm00384a018, PMID: 3806586
# [47] = method code SF-RC, from DOI: 10.1111/j.2042-7158.1987.tb06949.x, PMID: 2882008; conditions: pH 1.0
structure (smiles),measurement,setting,value
CN(CCc1ccccc1)C(=O)c1ccc[nH]1,logD,[1],1.65
COc1ccc(C(=O)c2ccncc2)cc1,logP,[2],1.94
CON=C1C=C(C#Cc2csc(CF)n2)CCC1,logD,[3],1.6
CCCCc1c(C)nc(NCC)nc1OS(=O)(=O)N(C)C,logD,[4],2.7
Ic1ccc2nc(-c3ccc(-c4nnn[nH]4)cc3)cn2c1,logP,,1.73
OC1(c2ccccc2Cl)CCCCC1n1cncn1 (stereo not drawn),logP,[5],2.68
CCc1c(O)c(=O)ccn1CCOC(=O)C(C)C,logD,[6],0.7
Nc1ccc(N)c2c1C(=O)c1ccccc1C2=O,logD,[7],3
CCN(CC)CCOC(=O)c1ccc(N)cc1,logP,[8],2.1
Cc1cnc(NC(=O)C2=C(O)c3ccccc3S(=O)(=O)N2C)s1,logD,[9],2.34
CCn1cc(C(=O)O)c(=O)c2cc3nc[nH]c3cc21,logP,[10],0.41
O=C(Cn1c(=O)sc2ccc(Cl)cc21)N1CCNCC1,logD,[11],1.35
CCCC(=O)OCOC(=O)c1ccccc1OC(C)=O,logD,[12],2.5
O=c1ccn(CCO)c(C(O)c2ccccc2)c1O (stereo not drawn),logP,[13],0.58
Nc1ccc2cc3ccccc3cc2c1,logP,[14],4.13
CCCCC(O)(Cn1cncn1)c1ccc(Cl)cc1Cl (stereo not drawn),logP,[15],3.9
CCC(C(=O)Oc1ccccc1)C(C)C (stereo not drawn),logP,[16],4.2
CCC1(c2ccccc2)C(=O)NC(=O)N(C)C1=O (stereo not drawn),logD,[17],1.84
OC[C@H]1O[C@H](O[C@H]2O[C@H](CO)[C@@H](O)[C@H](O)[C@H]2O)[C@H](O)[C@@H](O)[C@@H]1O,logP,[18],-3.76
Fc1ccc(C(c2ccc(F)cc2)C(Cl)(Cl)Cl)cc1,logP,[19],4.62
c1ccc(CCc2ccccc2)cc1,logP,[20],4.6
O=c1[nH]c(=O)n(C2CC(O)C(CO)O2)cc1-c1cn(CCF)nn1 (stereo not drawn),logD,[21],-1.33
Nc1ccc(-c2cn3cc(I)ccc3n2)cc1,logD,[22],3.58
Cc1cc(NC(=O)C2=C(O)c3ccccc3S(=O)(=O)N2C)no1,logP,[23],2.83
O=C1N=C(N2CCOCC2)CN1c1ccc(Cl)cc1,logD,[24],1.32
OC(Cn1cncn1)(Cn1cncn1)c1ccc(Cl)cc1Cl,logP,[25],1.1
OC1OC2COC(c3ccc(I)cc3)OC2C(O)C1O (stereo not drawn),logD,[26],1.9
COc1ccc(C=[N+]([O-])c2ccccc2)cc1,logP,[27],1.94
COc1cc(C=CC(=O)C=C(C)O)cc(I)c1O,logP,[28],1.35
O=C(O)C1(O)c2ccccc2-c2ccc(Cl)cc21 (stereo not drawn),logP,[29],3.22
CC1c2nc3ccccc3c(=O)n2CCN1C (stereo not drawn),logP,[30],0.64
Cc1cc2c(ccc3c(C)cc(=O)[nH]c32)o1,logP,[31],2.21
O=C(c1ccc(Cl)cc1)c1cc(F)ccc1O,logD,[32],4.05
C(=C\c1ccccc1)/c1ccccc1,logP,[33],4.59
Cc1c(C)c2ccc3occc3c2oc1=O,logP,[34],2.9
CCOC(=O)[C@H](CS)NCCN[C@@H](CS)C(=O)OCC,logD,[35],1.4
CCOP(=S)(Oc1ccc([N+](=O)[O-])cc1)c1ccccc1 (stereo not drawn),logD,[36],3.85
O=C(O)Cc1ccccc1Oc1ccc(Cl)cc1Cl,logP,[37],4.8
O=C(O)c1cccnc1Nc1cccc(C(F)(F)F)c1,logD,[38],2.95
C=CCOC(=O)c1ccccc1C(=O)OCC=C,logP,[39],3.23
CN(CCN)S(=O)(=O)c1ccc(C(C)(C)[N+](=O)[O-])c([N+](=O)[O-])c1,logP,[40],0.62
C[C@@H](OC(=O)N(N(CCCl)S(C)(=O)=O)S(C)(=O)=O)c1ccc([N+](=O)[O-])cc1,logD,[41],2.15
CC1=C(N)C(=O)c2c(COC(N)=O)c3n(c2C1=O)CC(N1CC1)C3N1CC1 (stereo not drawn),logD,[42],0.23
CNc1ncnc2c1ncn2Cc1ccccc1F,logD,[43],1.86
COC(=O)CCNC(=O)c1cc(N2CC2)c([N+](=O)[O-])cc1[N+](=O)[O-],logP,[44],0.56
Cn1c(CC(=O)O)cnc1C(=O)c1ccccc1,logD,[45],0.22
CC(=O)C1=CCCN(NC(=O)c2ccccc2)C1,logP,[46],-0.1
Cc1c(Cl)cccc1Nc1ccccc1C(=O)O,logD,[47],4.18
